# pIC50: −log10 of the molar value. Several values for one entry are separate records, joined by “and”; a condition that tells them apart may be missing. Equal entries are not always repeated.
# Tested on: 299254-011-R-J1-PDC complex spheroids viability
# Assay: Anticancer human tumor 299254-011-R-J1-PDC patient-derived melanoma cell line growth inhibition [GQUAD]
# Conditions: for viability, T/C: stronger effect = lower value
# From the text: DNA G-quadruplex Stabilizer Agents in Combinations in Complex Spheroids
# A high-throughput screen of multi-cell type tumor spheroids was designed to identify active combinations of DNA G-quadruplex stabilizer agents and targeted small molecules. Complex spheroids include a stromal component modeled by human endothelial cells (HUVEC) and fibroblasts modeled by human mesenchymal stem cells (MSCs). The concentration ranges selected for each drug and investigational agent were based upon clinically achievable concentrations if the clinical Cmax of the agent was known.
# Compounds. The drugs and investigational agents: pidnarulex (CX-5461; NSC782164), APTO-253 (NSC789042), BRACO-19 (NSC847499), peposertib (NSC802822), ceralasertib (NSC780249), elimusertib (NSC800525), camonsertib (NSC841442), AZD-1390 (NSC803789), olaparib (NSC753686), talazoparib (NSC767125), ART-558 (NSC835418), sotorasib (NSC818433), MRTX-1133 (NSC836407), SN-38 (NSC673596), topotecan (NSC609699), etoposide (NSC141540), doxorubicin (NSC123127), gemcitabine (NSC613327), 5-fluorouracil (NSC19893), paclitaxel (NSC125973), vemurafenib (NSC761431), panobinostat (NSC761190), R-306465 (JNJ-16241199; NSC773264), adavosertib (NSC754352), TP-3654 (NSC805149), carboplatin (NSC241240), KSQ-4279 (NSC840948), and staurosporine (NSC755774) were obtained from the National Cancer Institute (NCI) Developmental Therapeutics Program Chemical Repository (34). The FDA-approved anticancer drug set is available from the NCI Developmental Therapeutics Program. […] The stock solutions were prepared in dimethyl sulfoxide (DMSO, Sigma-Aldrich, St. Louis, MO, cat. D2650) at 800-fold the tested concentration and stored at -70 degrees C prior to their use. All drugs and investigational agents were tested over a range starting from a high concentration at or near the clinical Cmax and decreasing in half-log increments. If the clinical Cmax for an agent had not been determined, the highest concentration tested was 10 microM.
# 2.3 Cell Culture. All cells were maintained in an incubator at 37 degrees C and 5% CO2 with 95% humidity. The PDC lines were cultured according to standard operating procedures established by the NCI PDMR. All PDCs were thawed and cultured in Matrigel-coated flasks prepared with a working solution of 1X Ham's F-12 nutrient mix, without supplementation (Invitrogen, cat. 11765054), 100 U/mL penicillin-streptomycin (Invitrogen, cat. 15140122), and 2.5% Matrigel (Corning Inc., cat. 354248) for the first three passages. The 857933-349-R-J2-PDC line was cultured in 6C/Colon 1B media, which includes advanced DMEM/F-12 (Thermo Fisher Scientific, cat. 12634028), 10 mM HEPES (Thermo Fisher Scientific, cat. 15630080), 1X GlutaMAX supplement (Thermo Fisher Scientific, cat. 35050061), 0.1 mg/mL primocin (InvivoGen, cat. ant-pm-2), 10% defined fetal bovine serum, heat inactivated (HyClone Laboratories Inc., cat. SH30070.03HI), 50% L-WRN conditioned media (ATCC, cat. CRL-3276), 1.25 mM N-Acetyl-L-cysteine (Sigma-Aldrich, cat. A9165), 10 mM nicotinamide (Sigma-Aldrich, cat. N0636), 1X B-27 supplement (Thermo Fisher Scientific, cat. 17504044), 1X N-2 supplement (Thermo Fisher Scientific, cat. 17502048), 10 microM Y-27632 dihydrochloride (Tocris Bioscience, cat. 1254), and 50 ng/mL human EGF recombinant protein (Thermo Fisher Scientific, cat. PHG0311). The 485176-168-R4-J1-PDC line was cultured in Panc media, which includes all 6C/Colon 1B media components plus 100 ng/mL human FGF-10 (Thermo Fisher Scientific, cat. 100-26), 500 nM SB-431542 (Selleckchem, cat. S1067), and gastrin (Tocris, cat. 3006).
# […]
# 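Note: spheroids exposed to the agents for seven days before readout.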
# 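Throughout, for viability, T/C: percent viability relative to DMSO vehicle control wells = 100%.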
smiles,measurement,setting,value
COc1ncnc(C2CC2)c1-c1ncc2cnn(Cc3ccc(-c4nc(C(F)(F)F)cn4C(C)C)cc3)c2n1,"viability, T/C",compound 0.0316 µM,105% and 110% and 90.2%
same,"viability, T/C",compound 0.1 µM,115% and 110% and 86.3%
same,"viability, T/C",compound 0.316 µM,95.2% and 96.1% and 84.1%
same,"viability, T/C",compound 1 µM,102% (2×) and 85%
same,"viability, T/C",compound 3.16 µM,107% and 93.2% and 89.6%
same,"viability, T/C",compound 10 µM,82.6% and 87.6% and 91.8%
same,pIC50,curve of compound,< 5.00
CC[C@@]1(O)C(=O)OCc2c1cc1n(c2=O)Cc2cc3c(CN(C)C)c(O)ccc3nc2-1,"viability, T/C",compound 0.000999 µM,91.8% and 98.4% and 103%
same,"viability, T/C",compound 0.00316 µM,94% and 117% and 106%
same,"viability, T/C",compound 0.00999 µM,93.8% and 93.5% and 91.8%
same,"viability, T/C",compound 0.0316 µM,85.7% and 102% and 117%
same,"viability, T/C",compound 0.0999 µM,80.3% and 103% and 96.4%
same,"viability, T/C",compound 0.316 µM,97.9% and 88% and 91.1%
same,pIC50,curve of compound,< 6.50
C#Cc1c(F)ccc2cc(O)cc(-c3ncc4c(N5CC6CCC(C5)N6)nc(OCC56CCCN5CC(F)C6)nc4c3F)c12 (stereo not drawn) + Cc1cnc(CNC(=O)c2c(=O)c3ccc(N4CCCN(C)CC4)nc3n3c2sc2ccccc23)cn1,pIC50,"curve of first compound, second compound 0.0316 µM",< 5.00
same,pIC50,"curve of first compound, second compound 0.1 µM",< 5.00
same,pIC50,"curve of first compound, second compound 0.316 µM",< 5.00
same,pIC50,"curve of first compound, second compound 1 µM",< 5.00
same,pIC50,"curve of first compound, second compound 3.16 µM",< 5.00
same,pIC50,"curve of first compound, second compound 10 µM",> 7.50
same,"viability, T/C","second compound 0.0316 µM, first compound 0.0316 µM",108%
same,"viability, T/C","second compound 0.0316 µM, first compound 0.1 µM",87.8%
same,"viability, T/C","second compound 0.0316 µM, first compound 0.316 µM",102%
same,"viability, T/C","second compound 0.0316 µM, first compound 1 µM",93%
same,"viability, T/C","second compound 0.0316 µM, first compound 3.16 µM",96.2%
same,"viability, T/C","second compound 0.0316 µM, first compound 10 µM",79.8%
same,"viability, T/C","second compound 0.1 µM, first compound 0.0316 µM",123%
same,"viability, T/C","second compound 0.1 µM, first compound 0.1 µM",99.2%
same,"viability, T/C","second compound 0.1 µM, first compound 0.316 µM",122%
same,"viability, T/C","second compound 0.1 µM, first compound 1 µM",91.7%
same,"viability, T/C","second compound 0.1 µM, first compound 3.16 µM",103%
same,"viability, T/C","second compound 0.1 µM, first compound 10 µM",80.5%
same,"viability, T/C","second compound 0.316 µM, first compound 0.0316 µM",113%
same,"viability, T/C","second compound 0.316 µM, first compound 0.1 µM",115%
same,"viability, T/C","second compound 0.316 µM, first compound 0.316 µM",117%
same,"viability, T/C","second compound 0.316 µM, first compound 1 µM",87.1%
same,"viability, T/C","second compound 0.316 µM, first compound 3.16 µM",91.1%
same,"viability, T/C","second compound 0.316 µM, first compound 10 µM",74.1%
same,"viability, T/C","second compound 1 µM, first compound 0.0316 µM",81%
same,"viability, T/C","second compound 1 µM, first compound 0.1 µM",105%
same,"viability, T/C","second compound 1 µM, first compound 0.316 µM",94.4%
same,"viability, T/C","second compound 1 µM, first compound 1 µM",102%
same,"viability, T/C","second compound 1 µM, first compound 3.16 µM",83.1%
same,"viability, T/C","second compound 1 µM, first compound 10 µM",85.6%
same,"viability, T/C","second compound 3.16 µM, first compound 0.0316 µM",74.8%
same,"viability, T/C","second compound 3.16 µM, first compound 0.1 µM",103%
same,"viability, T/C","second compound 3.16 µM, first compound 0.316 µM",99.8%
same,"viability, T/C","second compound 3.16 µM, first compound 1 µM",85.8%
same,"viability, T/C","second compound 3.16 µM, first compound 3.16 µM",83.4%
same,"viability, T/C","second compound 3.16 µM, first compound 10 µM",88.6%
same,"viability, T/C","second compound 10 µM, first compound 0.0316 µM",50.6%
same,"viability, T/C","second compound 10 µM, first compound 0.1 µM",18.7%
same,"viability, T/C","second compound 10 µM, first compound 0.316 µM",43.6%
same,"viability, T/C","second compound 10 µM, first compound 1 µM",33.4%
same,"viability, T/C","second compound 10 µM, first compound 3.16 µM",51.3%
same,"viability, T/C","second compound 10 µM, first compound 10 µM",0.39%
Nc1ccn(C2OC(CO)C(O)C2(F)F)c(=O)n1 (stereo not drawn),"viability, T/C",compound 0.0316 µM,95.8% and 98.2% and 86.5%
same,"viability, T/C",compound 0.1 µM,83.6% and 88.4% and 76%
same,"viability, T/C",compound 0.316 µM,80.3% and 72.2% and 61.7%
same,"viability, T/C",compound 1 µM,41.2% and 60.1% and 52.5%
same,"viability, T/C",compound 3.16 µM,58.2% and 50.2% and 50.8%
same,"viability, T/C",compound 10 µM,53.6% and 73% and 51.9%
same,pIC50,curve of compound,< 5.00
CN(C)c1ccc(Nc2c3ccc(NC(=O)CCN4CCCC4)cc3nc3cc(NC(=O)CCN4CCCC4)ccc23)cc1,"viability, T/C",compound 0.0316 µM,95.2% [middle of 12 runs]
same,"viability, T/C",compound 0.316 µM,95.5% [middle of 12 runs]
same,"viability, T/C",compound 3.16 µM,106% [middle of 12 runs]
same,"viability, T/C",compound 10 µM,98.3% [middle of 12 runs]
same,pIC50,"compound alone, run of 02/26/2024",< 5.00

# Source: PubChem BioAssay AID2060513 (Molecular Pharmacology Branch, DTP, NCI, 2025)
